Laboratory results taken from patent US20210348164A1, “ENDOGENOUS CYTOPLASMIC ALU COMPLEMENTARY DNA IN AGE-RELATED MACULAR DEGENERATION” (University of Virginia Patent Foundation, priority 2018, published 2021).

Tests used:
NLRP3 inflammasome = assay: Caspase-1 activation in bone marrow-derived macrophages treated with LPS and ATP (immunoblot); format: cell-based; conditions: primary mouse BMDM; LPS and ATP stimulation
Method: Western blotting. Cells and tissue were homogenized in RIPA buffer (Sigma-Aldrich) with protease and phosphatase inhibitors (Roche) or lysed directly in Laemmli buffer. Protein concentration was determined using Pierce BCA Protein Assay Kit (Thermo Fisher Scientific). Equal quantities of protein (10-50 μg) prepared in Laemmli buffer were resolved by SDS-PAGE on NOVEX® Tris-Glycine Gels (Invitrogen), or MINI-PROTEAN® TGX™ Precast Protein Gels (Bio-Rad Laboratories, Inc., Hercules, Calif., United States of America) and transferred onto Immobilon-FL PVDF membranes (0.2 or 0.45 μm; MilliporeSigma, Burlington, Mass., United States of America). The transferred membranes were blocked in ODYSSEY® Blocking Buffer (PBS) for 1 hour at room temperature and then incubated with primary antibody at 4° C. overnight. Immunoreactive bands were visualized using species-specific secondary antibodies conjugated with IRDYE®. The blot images were captured on ODYSSEY® imaging systems. […]

L1 reverse transcriptase = L1 reverse transcriptase (Homo sapiens, UniProt O00370); conditions: Merluzzi et al., 1990; Dai et al., 2011; cited from earlier work
Sequence of L1 reverse transcriptase (O00370 whole entry, looked up): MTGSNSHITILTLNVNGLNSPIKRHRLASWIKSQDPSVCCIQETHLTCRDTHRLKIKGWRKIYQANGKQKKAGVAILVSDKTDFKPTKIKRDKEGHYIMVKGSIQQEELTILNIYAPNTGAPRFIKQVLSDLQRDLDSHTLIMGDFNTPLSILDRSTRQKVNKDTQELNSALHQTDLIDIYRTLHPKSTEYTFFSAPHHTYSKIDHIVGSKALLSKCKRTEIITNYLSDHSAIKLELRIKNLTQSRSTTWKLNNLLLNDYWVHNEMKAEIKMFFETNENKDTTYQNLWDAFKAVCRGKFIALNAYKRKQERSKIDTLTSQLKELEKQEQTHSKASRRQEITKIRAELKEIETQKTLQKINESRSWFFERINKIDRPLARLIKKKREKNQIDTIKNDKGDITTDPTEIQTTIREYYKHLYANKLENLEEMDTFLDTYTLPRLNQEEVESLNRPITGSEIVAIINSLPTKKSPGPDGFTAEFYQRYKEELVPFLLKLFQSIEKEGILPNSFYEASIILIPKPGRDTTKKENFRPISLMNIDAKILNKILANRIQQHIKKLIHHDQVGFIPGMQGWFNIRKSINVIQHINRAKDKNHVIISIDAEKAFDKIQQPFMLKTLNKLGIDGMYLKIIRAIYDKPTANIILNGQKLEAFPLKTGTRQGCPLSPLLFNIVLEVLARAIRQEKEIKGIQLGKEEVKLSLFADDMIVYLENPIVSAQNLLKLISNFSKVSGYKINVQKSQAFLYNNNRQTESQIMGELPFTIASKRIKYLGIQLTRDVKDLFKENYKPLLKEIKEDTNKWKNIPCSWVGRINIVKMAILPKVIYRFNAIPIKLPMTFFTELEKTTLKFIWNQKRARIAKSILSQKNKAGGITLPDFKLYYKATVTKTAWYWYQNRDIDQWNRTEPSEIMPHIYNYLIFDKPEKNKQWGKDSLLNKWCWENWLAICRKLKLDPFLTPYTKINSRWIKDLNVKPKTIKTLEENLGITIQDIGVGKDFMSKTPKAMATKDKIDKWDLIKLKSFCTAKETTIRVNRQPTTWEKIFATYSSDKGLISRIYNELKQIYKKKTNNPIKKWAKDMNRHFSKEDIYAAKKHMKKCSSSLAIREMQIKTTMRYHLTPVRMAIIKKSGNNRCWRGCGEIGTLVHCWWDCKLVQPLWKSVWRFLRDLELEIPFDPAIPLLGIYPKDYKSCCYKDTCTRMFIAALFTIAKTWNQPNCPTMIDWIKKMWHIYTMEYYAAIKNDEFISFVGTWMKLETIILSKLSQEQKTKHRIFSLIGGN

[1] = test system: Alu RNA-induced RPE degeneration; assay: Alu RNA-induced RPE degeneration in wild-type mice (fundus photography, ZO-1 flat mounts); format: in vivo, mouse; conditions: WT mice; intravitreous; low (25 μmol) doses

For `CC(C)Nc1cccnc1N1CCN(C(=O)c2cc3cc(NS(C)(=O)=O)ccc3[nH]2)CC1` [DLV, delavirdine], the “caspase-1 activation / NLRP3 inflammasome activation” value (NLRP3 inflammasome) is given as “did not inhibit NLRP3 inflammasome activation”, the “inhibition of L1 reverse transcriptase” value (L1 reverse transcriptase) is given as “inhibit L1 reverse transcriptase at high doses” and the “Alu RNA-induced RPE degeneration” value [1] is given as “did not block Alu RNA-induced RPE degeneration at low doses”.
For `O=C1Nc2ccc(Cl)cc2[C@@](C#CC2CC2)(C(F)(F)F)O1` [EFV, efavirenz], the “caspase-1 activation / NLRP3 inflammasome activation” value (NLRP3 inflammasome) is listed as “did not inhibit NLRP3 inflammasome activation”, the “inhibition of L1 reverse transcriptase” value (L1 reverse transcriptase) is listed as “inhibit L1 reverse transcriptase at high doses” and the “Alu RNA-induced RPE degeneration” value [1] is listed as “did not block Alu RNA-induced RPE degeneration at low doses”.
For `Cc1ccnc2c1NC(=O)c1cccnc1N2C1CC1` [NVP, nevirapine], the “caspase-1 activation / NLRP3 inflammasome activation” value (NLRP3 inflammasome) is listed as “does not inhibit”, the “inhibition of L1 reverse transcriptase” value (L1 reverse transcriptase) is listed as “does not inhibit L1 reverse transcriptase” and the “Alu RNA-induced RPE degeneration” value [1] is listed as “did not prevent Alu RNA-induced RPE degeneration at low or high doses”.
